Values quoted from earlier work, collected in patent publication US20070142395A1, “Treatment of sexual dysfunction with 1-[3-[4-(3-chlorophenyl)-1-piperazinyl]propyl]-5-methoxy-3,4-dihydro-2(1H)-quinolone or salt thereof” (Vela Pharmaceuticals, Inc., priority 2005, published 2007).

Settings: SSRI/SNRI antidepressant therapy; Montejo et al. 2001; cited from earlier work
In the case of CN[C@H]1CC[C@@H](c2ccc(Cl)c(Cl)c2)c2ccccc21 [sertraline], the “incidence of sexual dysfunction as side effect” value (shortened to “incidence of sexual dysfunction”) is listed as 62.9%.
In the case of COc1ccc(C(CN(C)C)C2(O)CCCCC2)cc1 (centres unmarked) [venlafaxine], the “incidence of sexual dysfunction” value is listed as 67.3%.
In the case of CNCCC(Oc1ccc(C(F)(F)F)cc1)c1ccccc1 (centres unmarked) [fluoxetine], the “incidence of sexual dysfunction” value is given as 57.7%.
In the case of Fc1ccc([C@@H]2CCNC[C@H]2COc2ccc3c(c2)OCO3)cc1 [paroxetine], the “incidence of sexual dysfunction” value is given as 70.7%.
For CN(C)CCCC1(c2ccc(F)cc2)OCc2cc(C#N)ccc21 (centres unmarked) [citalopram], the “incidence of sexual dysfunction” value is listed as 72.7%.
